Experimental data: patent US20250313547A1, “CEREBLON LIGANDS AND BIFUNCTIONAL COMPOUNDS COMPRISING THE SAME” (Arvinas Operations, Inc., priority 2017, published 2025)

Columns and labels:
[1] = biological target: Estrogen receptor-alpha (ERα) (Homo sapiens (Human), UniProt P03372); test: ERα degradation assay in T47D cells; assay type: cell-based; conditions: 5 day incubation, read-out: ER degradation DC50
c-myc = test: BRD4 human c-Myc ELISA assay in 22RV-1 cells; assay type: cell-based; conditions: 18 hours
Procedure: 6. BRD4 Human c-Myc ELISA Assay Protocol
22RV-1 cells were seeded at 30,000 cells/well at a volume of 75 µL/well in RPMI with 10% FBS media in 96-well plates and grown overnight at 37° C. Cells were dosed with compounds at 4× concentration diluted in 0.4% DMSO; compounds were serially diluted 1:3 for 8-point dose curve. Twenty-five (25) ul of the compounds was added to cells for a final concentration starting at 300 nM-0.3 nM or 1 uM-1 nM in 0.1% DMSO and incubated for 18 hours. Media was aspirated, cells were washed 1×with PBS and aspirated. Cells were lysed in 50 ul RIPA buffer (50 mM Tris pH8, 150 mM NaCl, 1% Tx-100, 0.1% SDS, 0.5% sodium deoxycholate) supplemented with protease and phosphatase inhibitors. Plates were incubated on ice for 15 minutes then centrifuged at 4° C. for 10 minutes at 4000 rpm. Fifty (50) ul of cleared lysate from a 96-well assay plate was added into 96-well c-myc ELISA plate (Novex, Life Technologies Catalog #KH02041). c-myc standard was reconstituted with standard diluent buffer; standard curve range of 333 pg/ml-0 pg/ml was prepared, diluted 1:2 for 8-point dose curve. The rest of the assay was performed following the protocol from the c-myc ELISA kit. Data was analyzed and plotted using GraphPad Prism software.

tau protein = test: Tau protein in vitro degradation assay in SK-N-SH cells (Western blot); assay type: cell-based, human; conditions: % degraded, 72-hour incubation
Procedure: 10. Tau Protein In Vitro Degradation Assay
To determine effect of PROTACs on tau protein degradation SK-N-SH cells were seeded in a 24-well tissue culture-treated plate for at least 18-hours prior to compound addition. Tau PROTACs were evaluated for tau degradation by lysing the cells in RIPA buffer with protease inhibitors following a 72-hour incubation with tau PROTACs. Cell lysates were run on standard SDS-PAGE gels, and tau levels were detected by Western blotting using Tau-13 antibody from Abcam (Cambridge, UK) that binds to all forms of human tau.

Chain of Estrogen receptor-alpha (ERα) (P03372 whole entry): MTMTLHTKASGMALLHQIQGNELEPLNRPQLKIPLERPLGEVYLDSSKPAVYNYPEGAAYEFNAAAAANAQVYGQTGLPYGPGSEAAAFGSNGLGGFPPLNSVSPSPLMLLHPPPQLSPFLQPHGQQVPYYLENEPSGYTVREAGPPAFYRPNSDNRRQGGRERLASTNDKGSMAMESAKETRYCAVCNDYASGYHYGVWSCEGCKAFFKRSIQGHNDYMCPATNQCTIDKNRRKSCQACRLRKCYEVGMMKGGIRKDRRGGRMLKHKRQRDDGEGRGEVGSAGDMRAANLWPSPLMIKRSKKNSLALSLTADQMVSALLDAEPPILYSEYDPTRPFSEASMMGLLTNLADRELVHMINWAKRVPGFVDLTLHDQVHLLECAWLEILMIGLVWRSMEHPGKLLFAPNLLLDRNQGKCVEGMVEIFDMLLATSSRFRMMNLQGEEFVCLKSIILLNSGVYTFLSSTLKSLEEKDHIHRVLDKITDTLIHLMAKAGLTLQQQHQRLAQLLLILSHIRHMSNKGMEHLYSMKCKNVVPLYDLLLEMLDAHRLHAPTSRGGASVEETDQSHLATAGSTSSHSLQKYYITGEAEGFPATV

DC50 [1] [nM] | Structure (SMILES) | further results
1 to 10 | O=C1CCC(N2CC(Oc3cccc(C4CCN(CCCOc5ccc([C@@H]6c7ccc(O)cc7CC[C@@H]6c6ccccc6)cc5)CC4)c3)=CC2=O)C(=O)N1 (stereo partly drawn) [PROTAC-106, 3-(4-(3-(1-(3-(4-((1R,2S)-6-hydroxy-2-phenyl-1,2,3,4-tetrahydronaphthalen-1-yl)phenoxy)propyl)piperidin-4-yl)phenoxy)-2-oxo-2,5-dihydro-1H-pyrrol-1-yl)piperidine-2,6-dione] | 
≥ 100 | O=C1CCC(N2CC(Oc3cccc(C4CCN(CCCOc5ccc([C@H]6c7ccc(O)cc7CC[C@H]6c6ccccc6)cc5)CC4)c3)=CC2=O)C(=O)N1 (mixture of isomers) [PROTAC-105, rac-3-(4-(3-(1-(3-(4-((1R,2S)-6-hydroxy-2-phenyl-1,2,3,4-tetrahydronaphthalen-1-yl)phenoxy)propyl)piperidin-4-yl)phenoxy)-2-oxo-2,5-dihydro-1H-pyrrol-1-yl)piperidine-2,6-dione] | 
≥ 100 | O=C1CCC(N2CC(Oc3cccc(C4CCN(CCCCOc5ccc([C@@H]6c7ccc(O)cc7CC[C@@H]6c6ccccc6)cc5)CC4)c3)=CC2=O)C(=O)N1 (mixture of isomers) [PROTAC-104, rac-3-(4-(3-(1-(4-(4-((1R,2S)-6-hydroxy-2-phenyl-1,2,3,4-tetrahydronaphthalen-1-yl)phenoxy)butyl)piperidin-4-yl)phenoxy)-2-oxo-2,5-dihydro-1H-pyrrol-1-yl)piperidine-2,6-dione] | 
≥ 100 | O=C1CCC(N2CC(Oc3cccc(C4CCN(CCCCOc5ccc([C@H]6c7ccc(O)cc7CC[C@H]6c6ccccc6)cc5)CC4)c3)=CC2=O)C(=O)N1 (mixture of isomers) [PROTAC-109, rac-3-(4-(3-(1-(4-(4-((1R,2S)-6-hydroxy-2-phenyl-1,2,3,4-tetrahydronaphthalen-1-yl)phenoxy)butyl)piperidin-4-yl)phenoxy)-2-oxo-2,5-dihydro-1H-pyrrol-1-yl)piperidine-2,6-dione] | 

Second part, the compound before the results:

Structure (SMILES) | DC50 [1] [nM] | further results
Cc1sc2c(c1C)C(c1ccc(Cl)cc1)=NC(CC(=O)NCCCOCCCOc1ccc3ncc(-n4ccc(=O)[nH]c4=O)cc3c1)c1nnc(C)n1-2 (stereo not shown) [PROTAC-1, 2-(4-(4-chlorophenyl)-2,3,9-trimethyl-6H-thieno[3,2-f][1,2,4]triazolo[4,3-a][1,4]diazepin-6-yl)-N-(3-(3-((3-(2,4-dioxo-3,4-dihydropyrimidin-1(2H)-yl)quinolin-6-yl)oxy)propoxy)propyl)acetamide] |  | IMax Myc (c-myc): 40C (C <= 50)
Cn1c2ccncc2c2ccc(-c3ccc(OCCOCCOCCOCCOCCN4CCC5(CC4)CC(=O)N(C4CCC(=O)NC4=O)C5=O)nc3)cc21 (stereo not shown) [PROTAC-112, 2-(2,6-dioxopiperidin-3-yl)-8-(14-((5-(5-methyl-5H-pyrido[4,3-b]indol-7-yl)pyridin-2-yl)oxy)-3,6,9,12-tetraoxatetradecyl)-2,8-diazaspiro[4.5]decane-1,3-dione] |  | Tau degradation % DMax (tau protein): C (C <= 50)
CCN(C(=O)c1ccc(N2CCN(CCCCCOc3ccc([C@@H]4c5ccc(O)cc5CC[C@@H]4c4ccccc4)cc3)CC2)cc1OC)C1CCC(=O)NC1=O (mixture of isomers) [PROTAC-92, rac-N-(2,6-dioxopiperidin-3-yl)-N-ethyl-4-(4-(5-(4-((1R,2S)-6-hydroxy-2-phenyl-1,2,3,4-tetrahydronaphthalen-1-yl)phenoxy)pentyl)piperazin-1-yl)-2-methoxybenzamide] | ≥ 100 | 
